ChEMBL document CHEMBL1126161, “3,4-Dihydroquinolin-2(1H)-ones as combined inhibitors of thromboxane A2 synthase and cAMP phosphodiesterase” (J Med Chem, 1992)

What was measured:
Mus musculus [1] = assay: Protection against mortality in pulmonary thromboembolism model in mice at 1 mg/kg; assay type: functional
Rattus norvegicus [2] = assay: Antihypertensive activity in conscious spontaneously hypertensive rat (SHR), percent change in Systolic blood pressure (SBP) at 0.3 mg/kg peroral dose after 8 hr; assay type: functional; details: route oral
Thromboxane-A synthase = target: T1, Thromboxane-A synthase (Homo sapiens, UniProt P24557); assay: Compound was evaluated for the inhibition of human blood platelet thromboxane A2 synthase
T1 sequence (P24557 whole entry): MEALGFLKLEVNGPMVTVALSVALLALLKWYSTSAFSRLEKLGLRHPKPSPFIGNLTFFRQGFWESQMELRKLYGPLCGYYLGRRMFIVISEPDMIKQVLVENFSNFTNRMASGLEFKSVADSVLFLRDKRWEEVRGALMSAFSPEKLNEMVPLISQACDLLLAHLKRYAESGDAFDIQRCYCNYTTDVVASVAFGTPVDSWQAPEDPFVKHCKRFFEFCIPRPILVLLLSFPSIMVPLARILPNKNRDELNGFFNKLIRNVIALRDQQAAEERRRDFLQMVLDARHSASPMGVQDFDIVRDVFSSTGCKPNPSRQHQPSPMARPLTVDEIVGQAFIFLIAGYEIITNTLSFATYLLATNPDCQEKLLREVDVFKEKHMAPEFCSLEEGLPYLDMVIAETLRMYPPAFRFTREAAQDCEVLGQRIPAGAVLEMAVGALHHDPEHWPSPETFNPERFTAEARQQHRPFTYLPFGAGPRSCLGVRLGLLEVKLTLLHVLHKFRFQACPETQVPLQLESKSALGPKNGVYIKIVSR

Rattus norvegicus [3] = assay: Antihypertensive activity in conscious spontaneously hypertensive rat (SHR), percent change in heart rate (beats/min) after 12 hr at 3 mg/kg peroral dose; assay type: functional; details: route oral
Homo sapiens [4] = species on record: Homo sapiens; assay: In vitro inhibition of ADP-induced aggregation of human PRP in the presence of pig aortal microsomes (PAM).; assay type: functional
Rattus norvegicus [5] = assay: (§1) Antihypertensive activity in conscious spontaneously hypertensive rat (SHR), percent change in heart rate (beats/min) after 1 hr at 3 mg/kg peroral dose; assay type: functional; details: route oral
Rattus norvegicus [6] = assay: Antihypertensive activity in conscious spontaneously hypertensive rat (SHR), percent change in heart rate (beats/min) after 12 hr at 1 mg/kg peroral dose; assay type: functional; details: route oral
Rattus norvegicus [7] = assay: Antihypertensive activity in conscious spontaneously hypertensive rat (SHR), percent change in heart rate (beats/min) after 12 hr at 0.3 mg/kg peroral dose; assay type: functional; details: route oral
Mus musculus [8] = assay: Protection against mortality in pulmonary thromboembolism model in mice at 12 mg/kg; assay type: functional
Rattus norvegicus [9] = assay: Antihypertensive activity in conscious spontaneously hypertensive rat (SHR), percent change in Systolic blood pressure (SBP) at 10 mg/kg peroral dose after 1 hr; assay type: functional; details: route oral
Rattus norvegicus [10] = assay: Antihypertensive activity in conscious spontaneously hypertensive rat (SHR), percent change in heart rate (beats/min) after 2 hr at 0.3 mg/kg peroral dose; assay type: functional; details: route oral
Homo sapiens [11] = species on record: Homo sapiens; assay: Inhibition of [14C]arachidonic acid induced platelet aggregation at 50 uM (Control 6-keto-PGF1-alpha = 1.45+/-0.6); assay type: functional
Mus musculus [12] = assay: Time course of protection against mortality in a pulmonary thromboembolism model in mice after -5 hr at 10 mg/kg; assay type: functional
Rattus norvegicus [13] = assay: Antihypertensive activity in conscious spontaneously hypertensive rat (SHR), percent change in heart rate (beats/min) after 8 hr at 1 mg/kg peroral dose; assay type: functional; details: route oral
Rattus norvegicus [14] = assay: Antihypertensive activity in conscious spontaneously hypertensive rat (SHR), percent change in Systolic blood pressure (SBP) at 1 mg/kg peroral dose after 2 hr; assay type: functional; details: route oral
Rattus norvegicus [15] = assay: Antihypertensive activity in conscious spontaneously hypertensive rat (SHR), percent change in heart rate (beats/min) after 8 hr at 10 mg/kg peroral dose; assay type: functional; details: route oral
Mus musculus [16] = assay: Time course of protection against mortality in a pulmonary thromboembolism model in mice after -1 hr at 10 mg/kg; assay type: functional
Homo sapiens [17] = species on record: Homo sapiens; assay: Inhibition of [14C]arachidonic acid induced platelet aggregation at 50 uM (Control TXB2 = 14.9+/-2.5); assay type: functional
Rattus norvegicus [18] = assay: Antihypertensive activity in conscious spontaneously hypertensive rat (SHR), percent change in Systolic blood pressure (SBP) at 1 mg/kg peroral dose after 8 hr; assay type: functional; details: route oral
Mus musculus [19] = assay: Protection against mortality in pulmonary thromboembolism model in mice at 9 mg/kg; assay type: functional
Rattus norvegicus [20] = assay: Antihypertensive activity in conscious spontaneously hypertensive rat (SHR), percent change in Systolic blood pressure (SBP) at 10 mg/kg peroral dose; assay type: functional; details: route oral
Rattus norvegicus [21] = assay: Antihypertensive activity in conscious spontaneously hypertensive rat (SHR), percent change in heart rate (beats/min) after 4 hr at 10 mg/kg peroral dose; assay type: functional; details: route oral
Rattus norvegicus [22] = assay: Antihypertensive activity in conscious spontaneously hypertensive rat (SHR), percent change in heart rate (beats/min) after 4 hr at 0.3 mg/kg peroral dose; assay type: functional; details: route oral
Rattus norvegicus [23] = assay: Antihypertensive activity in conscious spontaneously hypertensive rat (SHR), percent change in heart rate (beats/min) after 2 hr at 10 mg/kg peroral dose; assay type: functional; details: route oral
Rattus norvegicus [24] = assay: as §1; assay type: functional; details: route oral; remark: listed apart in the source
Rattus norvegicus [25] = assay: Antihypertensive activity in conscious spontaneously hypertensive rat (SHR), percent change in Systolic blood pressure (SBP) at 3 mg/kg peroral dose after 2 hr; assay type: functional; details: route oral
Homo sapiens [26] = species on record: Homo sapiens; assay: Inhibition of [14C]arachidonic acid induced TXB2 formation at 5 uM (Control TXB2 = 14.9+/-2.5)
Rattus norvegicus [27] = assay: Antihypertensive activity in conscious spontaneously hypertensive rat (SHR), percent change in heart rate (beats/min) after 1 hr at 0.3 mg/kg peroral dose; assay type: functional; details: route oral
Rattus norvegicus [28] = assay: Antihypertensive activity in conscious spontaneously hypertensive rat (SHR), percent change in Systolic blood pressure (SBP) at 3 mg/kg peroral dose after 12 hr; assay type: functional; details: route oral
Rattus norvegicus [29] = assay: Antihypertensive activity in conscious spontaneously hypertensive rat (SHR), percent change in heart rate (beats/min) after 4 hr at 3 mg/kg peroral dose; assay type: functional; details: route oral
Rattus norvegicus [30] = assay: Ex vivo inhibition of blood platelet aggregation in rats at 50 mg/kg peroral dose after 3 hr; assay type: functional; details: route oral
Homo sapiens [31] = species on record: Homo sapiens; assay: Inhibition of ADP-induced aggregation of human PRP in the absence of pig aortal microsomes (PAM); assay type: functional
Rattus norvegicus [32] = assay: Antihypertensive activity in conscious spontaneously hypertensive rat (SHR), percent change in heart rate (beats/min) after 12 hr at 10 mg/kg peroral dose; assay type: functional; details: route oral
Homo sapiens [33] = species on record: Homo sapiens; assay: Ratio of IC50(PDE)/IC50(TXA2); assay type: functional
Rattus norvegicus [34] = assay: Ex vivo inhibition of blood platelet aggregation in rats at 50 mg/kg peroral dose 8 hr; assay type: functional; details: route oral
Rattus norvegicus [35] = assay: Antihypertensive activity in conscious spontaneously hypertensive rat (SHR), percent change in heart rate (beats/min) after 2 hr; assay type: functional
Mus musculus [36] = assay: Protection against mortality in pulmonary thromboembolism model in mice at 3 mg/kg; assay type: functional
Rattus norvegicus [37] = assay: Antihypertensive activity in conscious spontaneously hypertensive rat (SHR), percent change in Systolic blood pressure (SBP) at 0.3 mg/kg peroral dose after 4 hr; assay type: functional; details: route oral
Rattus norvegicus [38] = assay: (§2) Antihypertensive activity in conscious spontaneously hypertensive rat (SHR), percent change in Systolic blood pressure (SBP) at 0.3 mg/kg peroral dose after 12 hr; assay type: functional; details: route oral
Rattus norvegicus [39] = assay: as §2; assay type: functional; details: route oral; remark: listed apart in the source

## O=C1CCc2cc(/C=C/n3ccnc3)ccc2N1
Mus musculus [1]
  survival at 1 mg/kg: 10%
Rattus norvegicus [2]
  Change in systolic BP: -54%
Thromboxane-A synthase
  IC50: 1200 nM
Rattus norvegicus [3]
  Change in heart rate: 8%
Homo sapiens [4]
  IC50: 1200 nM
Rattus norvegicus [5]
  Change in heart rate: -34%
Rattus norvegicus [6]
  Change in heart rate: 1%
Rattus norvegicus [7]
  Change in heart rate: -8%
Mus musculus [8]
  survival at 12 mg/kg: 70%
Rattus norvegicus [9]
  Change in systolic BP: -56%
Rattus norvegicus [10]
  Change in heart rate: -13%
Homo sapiens [11]
  6-keto-PGF1α level at 50 µM: 11.5%
Mus musculus [12]
  survival at 10 mg/kg: 60%
Rattus norvegicus [13]
  Change in heart rate: -5%
Rattus norvegicus [14]
  Change in systolic BP: -8%
Rattus norvegicus [15]
  Change in heart rate: 16%
Mus musculus [16]
  survival at 10 mg/kg: 50%
Homo sapiens [17]
  inhibition at 50 µM: 8%
Rattus norvegicus [18]
  Change in systolic BP: -9%
Mus musculus [19]
  survival at 9 mg/kg: 50%
Rattus norvegicus [20]
  Change in systolic BP: -35%
Rattus norvegicus [21]
  Change in heart rate: 25%
Rattus norvegicus [22]
  Change in heart rate: -4%
Rattus norvegicus [23]
  Change in heart rate: 19%
Rattus norvegicus [24]
  Change in heart rate: 28%
Rattus norvegicus [25]
  Change in systolic BP: -21%
Homo sapiens [26]
  TXB2 level at 5 µM: 12.3%
Rattus norvegicus [27]
  Change in heart rate: 3%
Rattus norvegicus [28]
  Change in systolic BP: -3%
Rattus norvegicus [29]
  Change in heart rate: 20%
Rattus norvegicus [30]
  inhibition in vivo at 50 mg/kg: 94.7%
Homo sapiens [31]
  IC50: 5.6 µM
Rattus norvegicus [32]
  Change in heart rate: 29%
Homo sapiens [33]
  Ratio: 5.3
Rattus norvegicus [34]
  inhibition in vivo at 50 mg/kg: 96.5%
Rattus norvegicus [35]
  Change in heart rate: 11%
Mus musculus [36]
  survival at 3 mg/kg: 20%
Rattus norvegicus [37]
  Change in systolic BP: -28%
Rattus norvegicus [38]
  Change in systolic BP: -1%
Rattus norvegicus [39]
  Change in systolic BP: 1%
